Reference: patent US10173981B2, “Picolinamides as fungicides” (DOW AGROSCIENCES LLC, priority 2014, dated 2019)
Read-outs that look alike come from different tables or passages of the source.

Columns and labels:
Type in all cases: in vivo
Zymoseptoria tritici = assay: Fungicidal activity: leaf blotch of wheat (SEPTTR), wheat seedlings; conditions: for pest or weed control at 121.5 g/ha: Low Volume Cereal Activity at 121.5 g/Ha; for pest or weed control at 100 ppm: High volume, wheat
Description: (§1) All fungicides were evaluated using the aforementioned method for their activity vs. all target diseases, unless stated otherwise. Wheat leaf blotch and brown rust activity were also evaluated using track spray applications, in which case the fungicides were formulated as EC formulations, containing 0.1% Trycol 5941 in the spray solutions. Wheat plants (variety Yuma) were grown from seed in a greenhouse in 50% mineral soil/50% soil-less Metro mix until the first leaf was fully emerged, with 7-10 seedlings per pot. These plants were inoculated with an aqueous spore suspension of Zymoseptoria tritici either prior to or after fungicide treatments. After inoculation the plants were kept in 100% relative humidity (one day in a dark dew chamber followed by two to three days in a lighted dew chamber at 20° C.) to permit spores to germinate and infect the leaf. The plants were then transferred to a greenhouse set at 20° C. for disease to develop. When disease symptoms were fully expressed on the 1st leaves of untreated plants, infection levels were assessed on a scale of 0 to 100 percent disease severity. Percent disease control was calculated using the ratio of disease severity on treated plants relative to untreated plants.

Puccinia triticina = assay: Fungicidal activity: wheat brown rust (PUCCRT), wheat seedlings; conditions: for pest or weed control at 121.5 g/ha: Low Volume Cereal Activity at 121.5 g/Ha; for pest or weed control at 100 ppm: High volume, wheat
Description: as §1, with “plants. Example B: Evaluation of Fungicidal Activity: Wheat Brown Rust (Puccinia triticina; Synonym: Puccinia recondita f. sp. tritici; Bayer code PUCCRT) Wheat plants (variety Yuma) were grown from seed in a greenhouse in 50% mineral soil/50% soil-less Metro mix until the first leaf was fully emerged, with 7-10 seedlings per pot. These plants were inoculated with an aqueous spore suspension of Puccinia triticina either prior to or after fungicide treatments. […] The plants were then transferred to a greenhouse set at 24° C. for disease to develop. Fungicide formulation, application and disease assessment followed the procedures as described in the Example A.” for “plants.”

Leptosphaeria nodorum = assay: Fungicidal activity: wheat glume blotch (LEPTNO), wheat seedlings; conditions: Parastagonospora nodorum, 1DP, high volume, read-out: LEPTNO (% control rating)
Venturia inaequalis = assay: Fungicidal activity: apple scab (VENTIN), apple seedlings; conditions: 1DP, high volume, read-out: VENTIN (% control rating)
Cercospora beticola = assay: Fungicidal activity: leaf spot of sugar beets (CERCBE); conditions: 1DP, high volume, sugar beet, read-out: CERCBE (% control rating)
Phakopsora pachyrhizi = assay: Fungicidal activity: Asian soybean rust (PHAKPA), soybean seedlings; conditions: High volume; for pest or weed control at 25 ppm: Phakopsora pachyrhizi
Rhyncosporium secalis = assay: Fungicidal activity: barley scald (RHYNSE), barley seedlings; conditions: Hordeum vulgare, 1DP, high volume, read-out: RHYNSE (% control rating)
Pyricularia oryzae = assay: whole plant or invertebrate; conditions: read-out: PYRIOR (% control rating)
Alternaria solani = assay: Fungicidal activity: tomato early blight (ALTESO), tomato plants; conditions: 1DP, high volume, read-out: ALTESO (% control rating)
[1] = tested on: Colletotrichum lagenarium; assay: Fungicidal activity: cucumber anthracnose (COLLLA), cucumber seedlings; conditions: Colletotrichum orbiculare, 1DP, high volume, read-out: COLLLA (% control rating)
[2] = 24 h, 1 Day Protectant, read-out: SEPTTR 1 DP (Wheat Leaf Blotch, 1 Day Protectant)
[3] = 72 h, 3 Day Curative, read-out: SEPTTR 3 DC (Wheat Leaf Blotch, 3 Day Curative)
[4] = 24 h, 1 Day Protectant, read-out: PUCCRT 1 DP (Wheat Brown Rust, 1 Day Protectant)
[5] = 72 h, 3 Day Curative, read-out: PUCCRT 3 DC (Wheat Brown Rust, 3 Day Curative)
[6] = 24 h, 1 day protectant, read-out: PHAKPA 1 DP (% control rating)
[7] = 72 h, 3 day curative, read-out: PHAKPA 3 DC (% control rating)

COc1ccnc(C(=O)N[C@@H](C)C(=O)O[C@@H](C)C(Oc2ccc(F)cc2)c2ccc(F)cc2)c1OC(C)=O (stereo partly shown) [Example 236]
pest or weed control at 121.5 g/ha (Zymoseptoria tritici; [2]): > 80% | pest or weed control at 121.5 g/ha (Zymoseptoria tritici; [3]): > 80% | pest or weed control at 121.5 g/ha (Puccinia triticina; [4]): > 80% | pest or weed control at 121.5 g/ha (Puccinia triticina; [5]): > 80% | pest or weed control at 100 ppm (Leptosphaeria nodorum): > 80% | pest or weed control at 100 ppm (Venturia inaequalis): > 80% | pest or weed control at 100 ppm (Cercospora beticola): > 80% | pest or weed control at 25 ppm (Phakopsora pachyrhizi; [6]): > 80% | pest or weed control at 25 ppm (Phakopsora pachyrhizi; [7]): < 0% | pest or weed control at 100 ppm (Rhyncosporium secalis): > 80% | pest or weed control at 100 ppm (Pyricularia oryzae): > 80% | pest or weed control at 100 ppm (Alternaria solani): < 80% | pest or weed control at 100 ppm [1]: < 80%

COc1cc(C)ccc1[C@@H](Oc1ccccc1)[C@H](C)OC(=O)[C@H](C)NC(=O)c1nccc(OC)c1OC(C)=O [Example 269]
pest or weed control at 121.5 g/ha (Zymoseptoria tritici; [2]): > 80% | pest or weed control at 121.5 g/ha (Zymoseptoria tritici; [3]): > 80% | pest or weed control at 121.5 g/ha (Puccinia triticina; [4]): > 80% | pest or weed control at 121.5 g/ha (Puccinia triticina; [5]): > 80% | pest or weed control at 25 ppm (Phakopsora pachyrhizi; [6]): > 80% | pest or weed control at 25 ppm (Phakopsora pachyrhizi; [7]): < 80%

COc1cc(F)ccc1[C@@H](Oc1ccccc1)[C@H](C)OC(=O)[C@H](C)NC(=O)c1nccc(OC)c1O [Example 178]
pest or weed control at 100 ppm (Zymoseptoria tritici; 24 h, 1 day protectant, read-out: SEPTTR 1 DP (% control rating)): > 80% | pest or weed control at 100 ppm (Zymoseptoria tritici; 72 h, 3 day curative, read-out: SEPTTR 3 DC (% control rating)): > 80% | pest or weed control at 100 ppm (Puccinia triticina; 24 h, 1 day protectant, read-out: PUCCRT 1 DP (% control rating)): > 80% | pest or weed control at 100 ppm (Puccinia triticina; 72 h, 3 day curative, read-out: PUCCRT 3 DC (% control rating)): < 80%

COc1cc(F)ccc1[C@@H](Oc1ccccc1)[C@H](C)OC(=O)[C@H](C)NC(=O)c1nccc(OC)c1OC(C)=O [Example 270]
PHAKPA 1 DP (% control rating) (Phakopsora pachyrhizi; 25 ppm, 1 day protectant): B (≤80) | PHAKPA 3 DC (% control rating) (Phakopsora pachyrhizi; 25 ppm, 3 day curative): D (≤0)
